Measured values from patent US6532386B2, “Electrotransort device comprising blades” (Johnson & Johnson Consumer Companies, Inc., priority 1998, dated 2003).

Experiments:
[1] = Transdermal reverse polarity iontophoresis of insulin in pig: blood glucose concentration; assay type: in vivo
Description: The procedure in Example 3 was repeated, except the stratum corneum of the pig was not disrupted with 400 μm blades and reverse polarity iontophoresis was only conducted for 30 minutes. […] Thus, no insulin was apparently delivered during the iontophoresis process.
The procedure in Example 4 was repeated, except 800 μm blades were pressed against the stratum corneum of a diabetic pig before iontophoresis was performed. The blood glucose in the pig was monitored for 9 hours.
The procedure described in Example 5 was then repeated.
The procedure in Example 5 was repeated except that ethyl cyanoacrylate was applied to the surface of the 800 μm blades before the blades were pressed against the skin of the pig. The blades were held against the skin of the pig for 2 minutes prior to performing iontophoresis to allow the ethyl cyanoacrylate to solidify prior to removal. […] The blood glucose concentration in the pig was monitored for 8 hours. The quantity of insulin delivered was so large that the hyperglycemic pig having an initial blood glucose concentration of 180 mg/dl became seriously hypoglycemic with a blood glucose concentration of 25 mg/dl.

[2] = Description: The stratum corneum was physically disrupted by repeatedly scratching the skin of a pig with 400 μm blades 20 times, 10 scratchings in one direction, 10 more in a direction perpendicular to the previous direction. Two electrodes were constructed with hollow 3.5 cm by 3.5 cm by 0.5 cm polystyrene vessels each having a volume of about 5 cm^3. A 3 cm by 3 cm by 0.5 mm piece of stainless steel was adhered to the inside of each polystyrene vessel. The electrodes were affixed to the skin of the pig with Dow Corning 355 Medical Adhesive available from Dow Corning of Midland, Mich.
An insulin solution available as Humulin-®(500 units/mL) from Eli Lilly and Co. of Indianapolis, Ind., was injected into the vessel with a hyperdermic needle. Iontophoresis was performed with direct current at a current intensity of 4 mA over about 12 cm^2 of skin. The electric polarity was manually reversed every 5 minutes for 2 hours. The blood glucose concentration and insulin serum concentration in the pig were periodically measured before, during, and after iontophoresis.
The skin on a pig was wiped generously with 200 proof ethanol and allowed to dry to induce skin permeation enhancement. The procedure described in Example 5 was then repeated. The blood glucose concentration and insulin serum concentration in the pig were monitored for 6 hours. […]

[3] = Example 5: diabetic pig, 800 μm blades, iontophoresis 30 minutes

Q: Which results are given for insulin?
A: reduction in blood glucose ([1]; Comparative Example 4: stratum corneum not disrupted with blades, reverse polarity iontophoresis 30 minutes): lack of any reduction in blood glucose; blood glucose concentration ([1]; Example 3: pig skin scratched with 400 μm blades, iontophoresis 4 mA over about 12 cm^2, polarity reversed every 5 minutes for 2 hours, from 140 mg/dl): 30 mg/dL; reduction of the blood glucose concentration ([1]; Example 3: pig skin scratched with 400 μm blades, reverse polarity iontophoresis for 2 hours): ~80%; reduction in the blood glucose concentration ([1]; Example 5: diabetic pig, 800 μm blades pressed against stratum corneum, iontophoresis 30 minutes, monitored 9 hours): ~37%; blood glucose level maintained [1, 3]: below 140 mg/dl; time blood glucose level was maintained below 140 mg/dl [1, 3]: over 8 hours; reduction of blood glucose ([1]; Example 6: skin wiped with 200 proof ethanol, 800 μm blades, after 2 hours): ~50%; reduction of blood glucose ([1]; Example 7: skin pre-treated with Nair lotion (calcium thioglycolate), 800 μm blades, iontophoresis 120 minutes, after 3 hours): 30%; blood glucose concentration ([1]; Example 8: hyperglycemic pig, ethyl cyanoacrylate on 800 μm blades, iontophoresis 120 minutes, initial 180 mg/dl): 25 mg/dL; insulin serum rise (insulin serum concentration) ([2]; Example 3: pig skin scratched with 400 μm blades, reverse polarity iontophoresis for 2 hours, from 25): 590 _IU/ml; serum insulin concentration ([2]; Example 6: skin wiped with 200 proof ethanol, 800 μm blades, after one hour): approximately 60 _IU/ml
